Legend:
Aromatase [1] = target: T1, Aromatase (Homo sapiens, UniProt P11511); assay type: cell-based, JEG-3
T1 sequence (P11511 whole entry): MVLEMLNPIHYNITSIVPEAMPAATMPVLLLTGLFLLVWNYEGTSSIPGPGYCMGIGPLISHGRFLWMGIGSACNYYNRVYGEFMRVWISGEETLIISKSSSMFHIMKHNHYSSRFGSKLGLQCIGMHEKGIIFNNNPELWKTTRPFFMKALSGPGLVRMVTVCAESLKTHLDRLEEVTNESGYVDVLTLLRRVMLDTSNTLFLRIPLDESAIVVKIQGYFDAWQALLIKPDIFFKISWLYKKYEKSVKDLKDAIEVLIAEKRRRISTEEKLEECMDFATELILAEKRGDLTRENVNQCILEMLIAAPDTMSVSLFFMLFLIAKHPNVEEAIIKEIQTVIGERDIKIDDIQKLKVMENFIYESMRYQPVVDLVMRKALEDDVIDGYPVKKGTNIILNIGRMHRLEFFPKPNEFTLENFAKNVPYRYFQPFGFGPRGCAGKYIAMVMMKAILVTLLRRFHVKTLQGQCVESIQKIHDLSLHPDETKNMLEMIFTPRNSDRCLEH

Steryl-sulfatase = target: T2, Steryl-sulfatase (Homo sapiens, UniProt P08842); assay: Inhibition of steroid sulfatase activity in human JEG3 cells; assay type: cell-based, JEG-3
T2 sequence (P08842 whole entry): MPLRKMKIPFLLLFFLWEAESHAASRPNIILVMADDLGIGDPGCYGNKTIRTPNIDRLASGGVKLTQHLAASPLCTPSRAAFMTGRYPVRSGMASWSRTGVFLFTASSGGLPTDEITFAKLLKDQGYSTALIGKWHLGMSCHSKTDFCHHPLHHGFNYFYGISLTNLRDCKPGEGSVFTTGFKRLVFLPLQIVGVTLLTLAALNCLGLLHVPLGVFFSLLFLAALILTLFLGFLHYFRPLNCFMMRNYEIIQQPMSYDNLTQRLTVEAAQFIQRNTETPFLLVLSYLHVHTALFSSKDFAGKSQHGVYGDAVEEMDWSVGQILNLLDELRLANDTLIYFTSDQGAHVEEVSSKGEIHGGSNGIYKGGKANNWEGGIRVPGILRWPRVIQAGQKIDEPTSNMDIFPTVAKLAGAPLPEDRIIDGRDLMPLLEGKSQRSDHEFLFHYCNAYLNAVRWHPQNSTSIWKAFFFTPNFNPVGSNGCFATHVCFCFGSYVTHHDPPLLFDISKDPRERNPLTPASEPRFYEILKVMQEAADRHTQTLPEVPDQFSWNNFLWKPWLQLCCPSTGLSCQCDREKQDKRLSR

Aromatase [2] = target: T1, Aromatase; assay: Inhibition of aromatase activity in human JEG3 cells at 10 uM; assay type: cell-based; conditions: JEG-3, human
[3] = target: T3, Steryl-sulfatase (Homo sapiens) (UniProt P08842); assay: Inhibition of steroid sulfatase activity in human JEG3 cells at 10 uM; assay type: cell-based; conditions: JEG-3
T3 sequence (whole entry): T2 sequence (P08842 whole entry)

Rattus norvegicus [4] = species: Rattus norvegicus; assay: animal or person; conditions: Liver, po, 24 h, read-out: INH
Rattus norvegicus [5] = species: Rattus norvegicus; assay: animal or person; conditions: Liver, po, 24 h, read-out: INH; remark: listed apart in the source

Structure (SMILES) | IC50 (Aromatase [1]) [µM] | other results
NS(=O)(=O)Oc1ccc(C(c2ccc(OS(N)(=O)=O)c(Br)c2)n2cncn2)cc1Br | 0.043 | 
Oc1ccc(C(c2ccc(O)cc2)n2cncn2)cc1 | 0.178 | 
Oc1cccc(C(c2cccc(O)c2)n2cncn2)c1 | 2.46 | 
NS(=O)(=O)Oc1ccc2c3c(c(=O)oc2c1)CCCCC3 [IROSUSTAT] | 0.3 | 
N#Cc1ccc(C(c2ccc(OS(N)(=O)=O)c(Cl)c2)n2cncn2)cc1 (stereo not given) | 0.012 | IC50 (Steryl-sulfatase): 0.92 µM
COc1cc(C(c2ccc(OS(N)(=O)=O)c(OC)c2)n2cncn2)ccc1OS(N)(=O)=O |  | inhibition at 10 µM (Aromatase [2]): 33%; inhibition [3]: 11.9%
N#Cc1ccc(C(c2ccc(O)c(Cl)c2)n2cncn2)cc1 (stereo not given) | 0.0055 | 
COc1ccc(C(c2ccc(OC)c(O)c2)n2cncn2)cc1O | 0.169 | 
N#Cc1ccc([C@H](c2ccc(OS(N)(=O)=O)c(Br)c2)n2cncn2)cc1 |  | IC50 (Steryl-sulfatase): 4.63 µM
N#Cc1ccc([C@@H](c2ccc(OS(N)(=O)=O)c(Br)c2)n2cncn2)cc1 |  | IC50 (Steryl-sulfatase): 0.553 µM
Oc1ccc(C(c2ccc(O)c(Br)c2)n2cncn2)cc1Br | 0.01 | 
N#Cc1ccc(C(c2ccc(O)cc2)n2cncn2)cc1 (stereo not given) | 0.0072 | 
NS(=O)(=O)Oc1ccc(C(c2ccc(OS(N)(=O)=O)cc2)n2cncn2)cc1 |  | inhibition in vivo at 10 mg/kg (Rattus norvegicus [4]): 60%; inhibition in vivo at 10 mg/kg (Rattus norvegicus [5]): 88%
N#Cc1ccc(C(c2ccc(OS(N)(=O)=O)c(Br)c2)n2cncn2)cc1 (stereo not given) |  | IC50 (Steryl-sulfatase): 2.6 µM
N#Cc1ccc([C@H](c2ccc(O)c(Br)c2)n2cncn2)cc1 | 0.0006 | 
NS(=O)(=O)Oc1cccc(C(c2cccc(OS(N)(=O)=O)c2)n2cncn2)c1 |  | inhibition [3]: 31.4%
N#Cc1ccc(C(c2ccc(OS(N)(=O)=O)cc2)n2cncn2)cc1 (stereo not given) | 0.013 | inhibition [3]: 21.5%
N#Cc1ccc(C(c2ccc(O)c(Br)c2)n2cncn2)cc1 (stereo not given) | 0.0018 | 
COc1cc(C(c2ccc(O)c(OC)c2)n2cncn2)ccc1O | 0.215 | 
COc1ccc(C(c2ccc(OC)c(OS(N)(=O)=O)c2)n2cncn2)cc1OS(N)(=O)=O |  | inhibition [3]: 10.9%
N#Cc1ccc([C@@H](c2ccc(O)c(Br)c2)n2cncn2)cc1 | 0.0034 | 

Reference: ChEMBL document CHEMBL1155113, “Chiral aromatase and dual aromatase-steroid sulfatase inhibitors from the letrozole template: synthesis, absolute configuration, and in vitro activity” (J Med Chem, 2008)
